The assay concerns the target IRE1α (Homo sapiens (Human), UniProt O75460, D688N). In words: IRE1α TR-FRET competition binding assay (IRE1α HTRF). The note with it: TR-FRET competition binding to kinase domain of IRE1α. The method, boiled down: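 Competition of compounds against an Alexa fluor 647 ATP-site probe (2 nM final) for the His-tagged kinase domain (0.25 nM final), detected via 2 nM Eu anti-His antibody by TR-FRET, 665 and 615 nm emission. Protein–antibody premix 1 h, 4° C; reaction 1 h, room temperature, pH 7.5 HEPES buffer.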
A general note: TR-FRET usually uses a lanthanide donor and a delayed reading to cut background.

The values below come from patent publication US12344603B2 (Genentech, Inc., priority 2020, dated 2025).

Counter-ions that a name gives are not always drawn.

IRE1α, sequence (O75460 547-977 D688N): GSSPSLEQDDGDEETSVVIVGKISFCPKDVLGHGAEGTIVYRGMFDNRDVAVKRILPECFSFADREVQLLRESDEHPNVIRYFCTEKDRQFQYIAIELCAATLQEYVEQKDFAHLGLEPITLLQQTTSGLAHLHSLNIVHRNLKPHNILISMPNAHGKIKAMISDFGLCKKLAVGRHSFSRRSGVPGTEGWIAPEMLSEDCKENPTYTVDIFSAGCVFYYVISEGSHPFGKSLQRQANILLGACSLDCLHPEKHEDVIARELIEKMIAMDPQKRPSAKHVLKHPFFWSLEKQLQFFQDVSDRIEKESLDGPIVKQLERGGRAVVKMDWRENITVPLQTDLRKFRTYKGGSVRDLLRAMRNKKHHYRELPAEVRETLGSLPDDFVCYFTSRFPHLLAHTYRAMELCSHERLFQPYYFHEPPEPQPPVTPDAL

Regarding `CC(C)n1c(=O)c(-c2ccc(NS(=O)(=O)Cc3ccccc3)c(F)c2)nc2cnc(N[C@H]3CC[C@H](N(C)C)[C@@H](F)C3)nc21` (stereo in doubt) [Compound 192A, N-(4-(2-((4-(Dimethylamino)-3-fluorocyclohexyl)amino)-8-isopropyl-7-oxo-7,8-dihydropteridin-6-yl)-2-fluorophenyl)-1-phenylmethanesulfonamide], the IC50 stood at 110 pM. Compound `COCCN(C)C1CCC(Nc2ncc3cc(-c4cc(F)c(NS(=O)(=O)Cc5ccccc5)c(F)c4F)c(=O)n(C(C)C)c3n2)CC1` (single isomer, unassigned) [Compound 102B, 1-Phenyl-N-(2,3,6-trifluoro-4-(8-isopropyl-2-((4-((2-methoxyethyl)(methyl)amino)cyclohexyl)amino)-7-oxo-7,8-dihydropyrido[2,3-d]pyrimidin-6-yl)phenyl)methanesulfonamide] registered an IC50 of 66000 pM. Compared with the last compound, the IC50 is about 600-fold higher.

As for `CC(C)n1c(=O)c(-c2ccc(NS(=O)(=O)CCC3(C)CC3)c(F)c2)cc2cnc(N[C@H]3CC[C@H](N(C)C)CC3)nc21` [Example 230, N-(4-(2-(((1r,4r)-4-(dimethylamino)cyclo-hexyl)amino)-8-isopropyl-7-oxo-7,8-dihydropyrido[2,3-d]-pyrimidin-6-yl)-2-fluorophenyl)-2-(1-methylcyclopropyl)-ethane-1-sulfonamide], the IC50 turned out to be 200 pM. The compound `CCn1c(=O)c(-c2cc(F)c(NS(=O)(=O)Cc3ccc(C#N)cc3)c(F)c2F)cc2cnc(N[C@@H]3CNC[C@@H](F)C3)nc21` [Compound 47, 1-(4-cyanophenyl)-N-(4-(8-ethyl-2-(((3S,5S)-5-fluoropiperidin-3-yl)amino)-7-oxo-7,8-dihydropyrido[2,3-d]pyrimidin-6-yl)-2,3,6-trifluorophenyl)methanesulfonamide] displayed a half-inhibitory concentration (IC50) of 370 pM.

In turn, `CC(C)n1c(=O)c(-c2cc(F)c(NS(=O)(=O)Cc3ccc(C(F)F)cc3)c(F)c2)nc2cnc(N[C@H]3CC[C@H](N(C)C)CC3)nc21` [Example 244, 1-[4-(Difluoromethyl)phenyl]-N-[4-[2-[[4-(dimethylamino)cyclohexyl]amino]-8-isopropyl-7-oxo-pteridin-6-yl]-2,6-difluoro-phenyl]methanesulfonamide] gave an IC50 of 200 pM. Against the preceding compound, the IC50 is about 1.9-fold lower. In turn, `CC(C)n1c(=O)c(-c2cc(F)c(NS(=O)(=O)Cc3ccc(F)cc3)c(F)c2F)nc2cnc(N[C@@H]3CNC[C@@H](F)C3)nc21` [Compound 171, 1-(4-Fluorophenyl)-N-(2,3,6-trifluoro-4-(2-(((3S,5S)-5-fluoropiperidin-3-yl)amino)-8-isopropyl-7-oxo-7,8-dihydropteridin-6-yl)phenyl)methanesulfonamide hydrochloride] displayed an IC50 of 120 pM. Compound `CCCS(=O)(=O)Nc1c(F)cc(-c2nc3cnc(N[C@H]4CC[C@H](N(C)C)CC4)nc3n(C(C)C)c2=O)cc1F` [Example 242, N-[4-[2-[[4-(Dimethylamino)cyclohexyl]amino]-8-isopropyl-7-oxo-pteridin-6-yl]-2,6-difluoro-phenyl]propane-1-sulfonamide] showed an IC50 of 100 pM. Consider `CCn1c(=O)c(-c2ccc(NS(=O)(=O)Cc3ccccc3)c(F)c2F)cc2cnc(N[C@H]3CCCNC3)nc21` [Compound 3, (S)—N-(4-(8-Ethyl-7-oxo-2-(piperidin-3-ylamino)-7,8-dihydropyrido[2,3-d]pyrimidin-6-yl)-2,3-difluorophenyl)-1-phenylmethanesulfonamide], for which the IC50 is 680 pM. Against the preceding compound, the IC50 is about 6.8-fold higher.

On to `CC(C)n1c(=O)c(-c2ccc(NS(=O)(=O)c3ccccc3)nc2)cc2cnc(N[C@H]3CC[C@H](N(C)CCF)CC3)nc21` [Compound 144, N-(5-(2-(((1r,4r)-4-((2-Fluoroethyl)(methyl)amino)cyclohexyl)amino)-8-isopropyl-7-oxo-7,8-dihydropyrido[2,3-d]pyrimidin-6-yl)pyridin-2-yl)benzenesulfonamide], for which the IC50 came to 180 pM. Compared with the last compound, the IC50 is about 3.8-fold lower.

The compound `CCC(F)(F)CS(=O)(=O)Nc1c(F)cc(-c2cc3cnc(N[C@H]4CC[C@H](N(C)C)CC4)nc3n(C(C)C)c2=O)c(F)c1F` [Compound 36, N-(4-(2-(((1r,4r)-4-(Dimethylamino)cyclohexyl)amino)-8-isopropyl-7-oxo-7,8-dihydropyrido[2,3-d]pyrimidin-6-yl)-2,3,6-trifluorophenyl)-2,2-difluorobutane-1-sulfonamide] yielded an IC50 of 180 pM. This lies in the sub-nanomolar range. For `CC(C)CC(=O)Nc1c(F)cc(-c2cc3cnc(N[C@H]4CC[C@H](N(C)C)CC4)nc3n(C(C)C)c2=O)c(F)c1F` [Compound 59, N-(4-(2-(((1r,4r)-4-(Dimethylamino)cyclohexyl)amino)-8-isopropyl-7-oxo-7,8-dihydropyrido[2,3-d]pyrimidin-6-yl)-2,3,6-trifluorophenyl)-3-methylbutanamide], the IC50 came out at 3200 pM. As to `Cc1nc(NS(=O)(=O)c2ccccc2F)ccc1-c1nc2cnc(N[C@H]3CC[C@H](N(C)C)CC3)nc2n(C(C)C)c1=O` [Example 253, N-[5-[2-[[4-(Dimethylamino)cyclohexyl]amino]-8-isopropyl-7-oxo-pteridin-6-yl]-6-methyl-2-pyridyl]-2-fluoro-benzenesulfonamide], the IC50 was 300 pM. This IC50 is about 11-fold lower than that of the compound before. The compound `CC(C)n1c(=O)c(-c2ccc(NS(=O)(=O)Cc3ccc(F)cc3)c(F)c2)cc2cnc(N[C@H]3CC[C@H](N(C)CCF)CC3)nc21` [Compound 155, N-(2-Fluoro-4-(2-(((1r,4r)-4-((2-fluoroethyl)(methyl)amino)cyclohexyl)amino)-8-isopropyl-7-oxo-7,8-dihydropyrido[2,3-d]pyrimidin-6-yl)phenyl)-1-(4-fluorophenyl)methanesulfonamide] returned an IC50 of 230 pM. This IC50 and that of the compound before are within 1.5-fold of each other. `COc1nc(NS(=O)(=O)c2ccccc2Cl)ccc1-c1nc2cnc(N[C@H]3CC[C@H](N(C)C)CC3)nc2n(C(C)C)c1=O` [Compound 173, 2-Chloro-N-(5-(2-(((1r,4r)-4-(dimethylamino)cyclohexyl)amino)-8-isopropyl-7-oxo-7,8-dihydropteridin-6-yl)-6-methoxypyridin-2-yl)benzenesulfonamide] showed an IC50 of 270 pM. In turn, `CC(C)Nc1ncc2cc(-c3cc(F)c(NS(=O)(=O)Cc4ccccc4)c(F)c3F)c(=O)n(C(C)C)c2n1` [Compound 20, 1-Phenyl-N-(2,3,6-trifluoro-4-(8-isopropyl-2-(isopropylamino)-7-oxo-7,8-dihydropyrido[2,3-d]pyrimidin-6-yl)phenyl)methanesulfonamide] had an IC50 of 1200 pM. As to `CC(C)n1c(=O)c(-c2cc(F)c(NS(=O)(=O)CCC(F)(F)F)c(F)c2F)cc2cnc(NC3CCC(N(C)C)C(F)C3)nc21` (centres unmarked) [Compound 60, N-(4-(2-((4-(dimethylamino)-3-fluorocyclohexyl)amino)-8-isopropyl-7-oxo-7,8-dihydropyrido[2,3-d]pyrimidin-6-yl)-2,3,6-trifluorophenyl)-3,3,3-trifluoropropane-1-sulfonamide], the IC50 came out at 200 pM. Against the preceding compound, the IC50 is about 6-fold lower. `CC(C)n1c(=O)c(-c2ccc(NS(=O)(=O)CCC(F)(F)F)c(F)c2)cc2cnc(N[C@@H]3CNC[C@@H](F)C3)nc21` [Compound 92, 3,3,3-Trifluoro-N-(2-fluoro-4-(2-(((3S,5S)-5-fluoropiperidin-3-yl)amino)-8-isopropyl-7-oxo-7,8-dihydropyrido[2,3-d]pyrimidin-6-yl)phenyl)propane-1-sulfonamide] had an IC50 of 300 pM. `COCCN(C)[C@H]1CC[C@H](Nc2ncc3cc(-c4ccc(NS(=O)(=O)Cc5ccccc5)c(F)c4)c(=O)n(C(C)C)c3n2)CC1` [Compound 124, N-(2-Fluoro-4-(8-isopropyl-2-(((1r,4r)-4-((2-methoxyethyl)(methyl)amino)cyclohexyl)amino)-7-oxo-7,8-dihydropyrido[2,3-d]pyrimidin-6-yl)phenyl)-1-phenylmethanesulfonamide hydrochloride] displayed an IC50 of 120 pM.

As for `CC(C)n1c(=O)c(-c2cc(F)c(NS(=O)(=O)CCC(F)(F)F)c(F)c2)cc2cnc(NC3CCC(N(C)C)C(F)C3)nc21` (single isomer, unassigned) [Compound 118A, N-(4-(2-((4-(Dimethylamino)-3-fluorocyclohexyl)amino)-8-isopropyl-7-oxo-7,8-dihydropyrido[2,3-d]pyrimidin-6-yl)-2,6-difluorophenyl)-3,3,3-trifluoropropane-1-sulfonamide], the IC50 came to 730 pM. The compound `CC(C)n1c(=O)c(-c2ccc(NS(=O)(=O)CCC(F)(F)F)nc2)cc2cnc(N[C@H]3CC[C@H](N(C)C)[C@H](F)C3)nc21` [Example 224] yielded an IC50 of 200 pM.

In turn, `CCn1c(=O)c(-c2ccc(NS(=O)(=O)CCC(F)(F)F)c(F)c2F)cc2cnc(N[C@@H]3CNC[C@@H](F)C3)nc21` [Compound 14, N-(4-(8-Ethyl-2-(((3S,5S)-5-fluoropiperidin-3-yl)amino)-7-oxo-7,8-dihydropyrido[2,3-d]pyrimidin-6-yl)-2,3-difluorophenyl)-3,3,3-trifluoropropane-1-sulfonamide] yielded an IC50 of 5000 pM. The compound `CC(C)n1c(=O)c(-c2cc(F)c(NS(=O)(=O)Cc3ccn(CC(F)(F)F)n3)c(F)c2F)cc2cnc(N[C@@H]3CNC[C@@H](F)C3)nc21` [Compound 158, N-(2,3,6-Trifluoro-4-(2-(((3S,5S)-5-fluoropiperidin-3-yl)amino)-8-isopropyl-7-oxo-7,8-dihydropyrido[2,3-d]pyrimidin-6-yl)phenyl)-1-(1-(2,2,2-trifluoroethyl)-1H-pyrazol-3-yl)methanesulfonamide] registered an IC50 of 570 pM. Regarding `CC(C)n1c(=O)c(-c2cc(F)c(NC(=O)C3CC3F)c(F)c2F)cc2cnc(N[C@H]3CC[C@H](N(C)C)CC3)nc21` (single isomer, unassigned) [Compound 98B, N-(4-(2-(((1r,4r)-4-(Dimethylamino)cyclohexyl)amino)-8-isopropyl-7-oxo-7,8-dihydropyrido[2,3-d]pyrimidin-6-yl)-2,3,6-trifluorophenyl)-2-fluorocyclopropane-1-carboxamide], the IC50 is 2200 pM.

The IC50 is the concentration that gives 50% inhibition. A high value points to weaker potency.
